Source: the supplement of paper PMC10307832

Columns and labels:
Test in all cases: relative viability (nuclei count vs DMSO), 5 days (fraction); higher = more cells survive
[1] = compound: COC1=CC(c2cc3ccccc3[nH]2)=N/C1=C\c1[nH]c(C)cc1C [Obatoclax] + O=C(CCCCCCC(=O)Nc1ccccc1)NO [Vorinostat] (partner 1 µM)
Method in brief: (§1)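 After 5 days of treatment, lung cancer cells in 1536-well plates were fixed and stained in a single step (final 0.05% Triton X-100, 1% formaldehyde, 1 ug/ml Hoechst) and their nuclei counted on 4× images. Treatment had been applied by pin tool the day after seeding as one drug alone or as a fixed anchor-drug dose with five library-drug doses (not always all listed) in √10 steps. Relative viability is the nuclei count of treated wells divided by that of vehicle wells, and values are medians of duplicate plates.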

[2] = compound: COC1=CC(c2cc3ccccc3[nH]2)=N/C1=C\c1[nH]c(C)cc1C [Obatoclax] + CS(=O)(=O)N1CCN(Cc2cc3nc(-c4cccc5[nH]ncc45)nc(N4CCOCC4)c3s2)CC1 [Pictilisib] (partner 1 µM)
Method in brief: as §1

[3] = compound: CC1=CC(=NN1)NC2=CC(=NC(=N2)/C=C/C3=CC=CC=C3)N4CCN(CC4)C + Cc1nc(NC(=O)N2CCC[C@H]2C(N)=O)sc1-c1ccnc(C(C)(C)C(F)(F)F)c1 [Alpelisib] (partner 2 µM)
Method in brief: as §1

[4] = compound: COC1=CC(c2cc3ccccc3[nH]2)=N/C1=C\c1[nH]c(C)cc1C [Obatoclax] + Nc1ncn([C@H]2C[C@H](O)[C@@H](CO)O2)c(=O)n1 [Decitabine] (partner 2 µM)
Method in brief: as §1

Cell Line | relative viability ([1]; first compound 0.01 µM) | relative viability ([1]; first compound 0.03162 µM) | relative viability ([1]; first compound 0.1 µM) | relative viability ([1]; first compound 0.3162 µM) | relative viability ([1]; first compound 1 µM) | relative viability ([2]; first compound 0.01 µM) | relative viability ([2]; first compound 0.03162 µM) | relative viability ([2]; first compound 0.1 µM) | relative viability ([2]; first compound 0.3162 µM) | relative viability ([2]; first compound 1 µM) | relative viability ([3]; first compound 0.08 µM) | relative viability ([3]; first compound 0.253 µM) | relative viability ([3]; first compound 0.8 µM) | relative viability ([3]; first compound 2.53 µM) | relative viability ([3]; first compound 8 µM) | relative viability ([4]; first compound 0.01 µM) | relative viability ([4]; first compound 0.03162 µM) | relative viability ([4]; first compound 0.1 µM) | relative viability ([4]; first compound 0.3162 µM) | relative viability ([4]; first compound 1 µM)
NCI-H3122 | 0.981 | 0.783 | 1.03 | 0.991 | 1.07 | 0.575 | 0.634 | 0.767 | 0.615 | 0.497 | 0.769 | 0.799 | 0.902 | 0.621 | 0.257 | 0.434 | 0.489 | 0.39 | 0.435 | 0.453
PC-3 [JPC-3] | 0.835 | 0.555 | 0.767 | 0.527 | 0.439 | 0.794 | 0.676 | 0.819 | 0.685 | 0.834 | 1.08 | 1.15 | 1.04 | 1 | 0.78 | 0.826 | 0.799 | 0.776 | 0.732 | 0.501
PC-14 | 0.625 | 0.736 | 0.696 | 0.341 | 0.0549 | 0.712 | 0.622 | 0.681 | 0.716 | 0.324 | 0.915 | 0.85 | 0.322 | 0.749 | 0.124 | 0.209 | 0.17 | 0.147 | 0.0898 | 0.0842
RERF-LC-KJ | 0.649 | 0.791 | 0.709 | 0.595 | 0.474 | 0.543 | 0.587 | 0.538 | 0.513 | 0.334 | 0.788 | 0.978 | 0.828 | 0.573 | 0.314 | 0.693 | 0.632 | 0.643 | 0.613 | 0.291
